Values of other authors, collected in patent US20110053898A1, “TOPICAL COMPOSITION COMPRISING VITAMIN D ANALOGUE AND CORTICOSTEROIDS” (GLENMARK GENERICS LTD, priority 2009, published 2011).

Details: vitamin-D3 derivative versus calcitriol

**Q.** For C=C1/C(=C/C=C2\CCC[C@]3(C)[C@@H]([C@H](C)/C=C/C(O)C4CC4)CC[C@@H]23)C[C@@H](O)C[C@@H]1O (stereo partly shown) [Calcipotriene], which “Power relative to the natural hormone calcitriol” value is on record?
**A.** about 1%
